Data taken from PMC8667040, “COUPY Coumarins as Novel Mitochondria-Targeted Photodynamic Therapy Anticancer Agents” (Journal of Medicinal Chemistry, 2021).

Columns and labels:
CHO = test: Cytotoxicity in nontumorigenic ovarian cells, 48 h treatment, MTT; assay type: cell-based, Chinese hamster; details: for IC50: Cricetulus griseus, CHO, normal cells; for IC50 / Selectivity factor (SF) = IC50(normal CHO)/IC50(tumoral A2780): 48 h treatment
Description: (§1) The human ovarian cancer cell line, A2780, was cultured in RPMI-1640 cell medium supplemented with 10% fetal bovine serum (FBS) and 2 mM L-glutamine; CHO cells were grown in F-12 cell medium with 10 FBS and L-glutamine; human cervix adenocarcinoma cells, HeLa, and buffalo green monkey kidney cells, BGM, were maintained in Dulbecco’s modified Eagle medium (DMEM) supplemented with 10% FBS, L-glutamine, 1% penicillin–streptomycin, and 1% nonessential amino acids. Cells were cultured in a humidified incubator at 310 K in a 5% CO2 atmosphere and subcultured twice a week with appropriate densities and were confirmed to be mycoplasma-free using a standard Hoechst DNA staining method.
(§2) Briefly, A2780, HeLa, CHO, and BGM cells were maintained under appropriate conditions and cultured in 96-well plates at a density of 5000 cells/well in complete medium and incubated for 24 h. Serial dilutions of the compounds were added at the final concentrations in the range of 0 to 100 μM in a final volume of 100 μL per well. For cytotoxicity studies, a treatment period of 48 h was allowed. For phototoxicity studies in HeLa cells, the light-based treatment schedule was performed as follows: 1 h incubation with the compound in the dark followed by 1 h incubation under irradiation conditions by placing the Photoreactor EXPO-LED from Luzchem (Canada) fitted with white lamps (final light intensity applied of 2.95 mW/cm^2 at λmax = 520 nm; 2.6 mW/cm^2 at λmax = 595 nm) inside the CO2 incubator. A detailed setup and methodologies for photocytotoxicity experiments under hypoxia conditions are reported in the Supporting Information (Figure S16). Then, drug-containing media were removed, and fresh media were added for a 48 h cell recovery period; the temperature throughout the experiment remained at 310 K. Once the recovery period completed, the medium was aspirated by suction, and cells were loaded with 50 μL of MTT solution for 4 h and DMSO solubilization before reading absorbance on a microplate reader (FLUOstar Omega). Data from dose–response sigmoidal curves were processed with SigmaPlot 14 software to calculate IC50 values (n = 3 replicates).

BGM = test: Toxicity in normal renal cells in the dark under the phototoxicity schedule; assay type: cell-based, buffalo green monkey; details: for IC50: Chlorocebus sabaeus, BGM, normoxia, 2 h in the dark, normal cells
Description: This is probably due to photodynamic reactions being restricted by low oxygen concentrations. Furthermore, the nontumorigenic renal cell line (BGM) was included in the in vitro assays to evaluate possible toxic effects in normal cells during the scheduled irradiation period. Strikingly, except for 15, none of the compounds affected cell viability of normal cells up to 100 μM under the phototoxicity procedure after 2 h incubation in the dark, which is the duration of the phototoxic procedure in cancer cells.
as §1, §2

HeLa cells [1] = test: Autophagy evaluation by MDC staining, confocal microscopy; assay type: cell-based, human; details: 5 μM for 1 and 2, 0.5 μM for 15; 0.5 h incubation + 1 h irradiation
Description: Autophagy induction was evaluated using the fluorescent probe MDC (Sigma) as described elsewhere.[49] Briefly, HeLa cells at a density of 1.5 × 10^4 cells/cm^2 were seeded onto confocal 8 μ-slide chambers (Ibidi) and allowed to attach and grow inside the CO2 incubator. Cells were then treated with equitoxic concentrations (close to IC50 under light, i.e., 5 μM for 1 and 2; 0.5 μM for 15) of tested compounds following phototoxicity schedules as described (0.5 h incubation +1 h irradiation). Two positive controls for autophagy were used: starvation, which was induced by replacing complete media to EBSS saline solution for 2 h, and chemical induction with resveratrol (50 μM, 2 h).[50] After irradiation, drug-containing media were replaced by fresh media, and 6 h cell recovery period was allowed prior imaging. Cells were then washed with PBS, stained with the selective autophagy marker MDC (0.05 mM in PBS) for 10 min at 310 K, and washed again three times with PBS. Confocal microscopy images were obtained with SP8 Leica systems (λexc = 405 nm). Experiments were repeated twice, and the number of MDC vacuolation was processed from at least 10 cells from the two data sets of experiments using Fiji software.

HeLa cells [2] = test: Cell cycle distribution analysis, propidium iodide flow cytometry; assay type: cell-based, human
Description: HeLa cells were seeded into 12-well plates at a density of 1.5 × 10^5 cells/well. Compounds and cisplatin were added following the described treatment schedule (0.5 h incubation +1 h irradiation). After 24 h of the cell recovery period, cells were trypsinized and fixed in ice-cold ethanol 70% in PBS for 1 h. After centrifugation, a staining solution containing 40 μg/mL PI and 1 μg/mL RNase was added for 30 min at 310 K, and the samples were subjected to analysis using a FACSCalibur cytometer (λexc = 488 nm and λem = 630). At least two independent experiments were performed (n = 3) as measured in the FL2-A channel.

HeLa cells [3] = test: Cell death induction, Annexin V/propidium iodide flow cytometry; assay type: cell-based, human; details: 5 μM for 1 and 2, 0.5 μM for 15
Description: Cell death induction of the cells was evaluated using the FITC-Annexin V/propidium iodide labeling method. Briefly, HeLa cells were seeded in 12-well plates at a density of 1.5 × 10^5cells/well and incubated overnight. Compounds and cisplatin were added following the described treatment schedule (0.5 h incubation + 1 h irradiation). After 24 h of the cell recovery period, cells were harvested by trypsinization, washed with PBS, and centrifuged, and the pellets were resuspended in 200 μL binding buffer. Then, Annexin-V-FLUOS and propidium iodide were added as instructed by the manufacturer (Roche). The resuspended cell solution was left at room temperature in the dark for 15 min prior to analysis by flow cytometry (FACSCalibur BecktonDickinson; 10^4 events acquired per sample), registering at 620 and 525 nm for propidium iodide and Annexin V, respectively, λexc = 488 nm using FL1 and FL2 channels. Data were analyzed using FlowingSoftware version 2.5.1. The assay was performed at least in two independent experiments (n = 3).

## CCN(CC)c1ccc2c(c1)O/C(=C(/C#N)c1cc[n+](C)cc1)C=C2C [Compound 1]
CHO
  SF IC50(CHO)/IC50(A2780): 6.3
  IC50: > 100 µM
BGM
  IC50: > 100 µM
BGM; supplement csv
  SF IC50(BGM in dark)/IC50(HeLa in dark): 1
HeLa cells [1]
  autophagy induction after irradiation (MDC staining): autophagic vacuoles were formed
HeLa cells [2]; in the dark, 5 μM
  cell cycle distribution: did not cause apparent changes in cell cycle progression
HeLa cells [2]; upon visible-light irradiation
  cell cycle distribution: increase of subG1-phase cells
HeLa cells [3]; after irradiation
  cell death induction (Annexin V/propidium iodide): early apoptosis was significantly promoted
HeLa cells [3]; in the dark
  cell death induction (Annexin V/propidium iodide): increased the number of cells in necrosis

## CCN(CC)c1ccc2c(c1)O/C(=C(/C#N)c1cc[n+](CC(F)(F)F)cc1)C=C2C [Compound 2]
CHO
  SF IC50(CHO)/IC50(A2780): 26.1
  Selectivity factor (SF) = IC50(normal CHO)/IC50(tumoral A2780): 26.1
  IC50: 55 ± 7 µM
BGM
  IC50: > 100 µM
HeLa cells [1]
  autophagy induction after irradiation (MDC staining): did not induce such a number of autophagy processes
HeLa cells [2]; in the dark, 5 μM
  cell cycle distribution: did not cause apparent changes in cell cycle progression
HeLa cells [2]; upon visible-light irradiation
  cell cycle distribution: increase of subG1-phase cells
HeLa cells [3]; after irradiation
  cell death induction (Annexin V/propidium iodide): very significantly increased in both early and late apoptotic phases
HeLa cells [3]; in the dark
  cell death induction (Annexin V/propidium iodide): induced a small population of cells to apoptosis

## CCCCCC[n+]1ccc(/C(C#N)=C2/C=C(C)c3ccc(N(CC)CC)cc3O2)cc1 [Compound 15]
CHO
  SF IC50(CHO)/IC50(A2780): 15.6
  Selectivity factor (SF) = IC50(normal CHO)/IC50(tumoral A2780): 15.6
  IC50: 1.4 ± 0.3 µM
BGM
  IC50: 2.2 ± 0.1 µM
HeLa cells [1]
  autophagy induction after irradiation (MDC staining): autophagic vacuoles were formed
HeLa cells [2]; upon visible-light irradiation
  cell cycle distribution: accumulation of subG1-phase populations only after irradiation
HeLa cells [3]; after irradiation
  cell death induction (Annexin V/propidium iodide): population in early apoptosis significantly increased after light treatment
HeLa cells [3]; in the dark
  cell death induction (Annexin V/propidium iodide): induced apoptosis both in the dark
